Earlier results in US10383918B2, “Compositions in the form of an injectable aqueous solution comprising human glucagon and a statistical co-polyamino acid” (ADOCIA, priority 2016, dated 2019).

Details: lyophilizate reconstituted at acidic pH (pH<3)

Time to appearance of human glucagon fibrils after the reconstitution: ≤ 24 h
Substance: H-His-Ser-Gln-Gly-Thr-Phe-Thr-Ser-Asp-Tyr-Ser-Lys-Tyr-Leu-Asp-Ser-Arg-Arg-Ala-Gn-Asp-Phe-Val-Gn-Trp-Leu-Met-Asn-Thr-OH [human glucagon]
